According to US5025099A, “(3-amino-1-propynyl)methylthiothiophene derivatives” (American Cyanamid Company, priority 1990, dated 1991):
“And” between values parts separate entries of the source, which are not always exact repeats. Equal entries are not always repeated. Structures can show the parent of a compound that is named as a salt.

Legend:
[1] = molecular target: muscarinic cholinergic receptor; test: [^3 H]-Cis-methyldioxolane (^3 H-CD) Binding Assay (High Affinity), rat cerebral cortex homogenate; conditions: 1.0 nM ^3 H-CD, 25° C., 120 minutes
[2] = molecular target: muscarinic cholinergic receptor; test: [^3 H] Quinuclidinyl Benzilate (^3 H-QNB) Binding Assay, rat cerebral cortex homogenate; conditions: pH 7.4
muscarinic sites = conditions: cited from earlier work
SDAT patients = conditions: compared to the anticholinesterase inhibitor physostigmine; cited from earlier work
[3] = rat cerebral cortex, 0.25 nM ^3 H-QNB, 25° C., hydrochloride
[4] = rat cerebral cortex, 0.25 nM ^3 H-QNB, 25° C.

Row | Compound | IC50 ([1]; pH 7.4, hydrochloride) [nM] | IC50 [2, 3] [nM] | IC50 ([1]; pH 7.4) | IC50 [2, 4] | other results
1 | CSc1ccsc1C#CCN1CCCCC1 [1-[3-[3-(Methylthio)-2-thienyl]-2-propynyl]piperidine, hydrochloride] | 44 | 2100 | – | – | –
2 | CSc1sccc1C#CCN1CCCCC1 [1-[3-[2-(Methylthio)-3-thienyl]-2-propynyl]piperidine] | – | – | 31.1 nM | 1140 nM | –
3 | CSc1cscc1C#CC[N+](C)(C)C [N,N,N-Trimethyl-3-[4-(methylthio)-3-thienyl]-2-propyn-1-aminium, iodide] | – | – | 121 nM | – | IC50 [2]: 9050 nM
4 | CSc1ccsc1C#CCN1CCCC1 [1-[3-[3-(Methylthio)-2-thienyl]-2-propynyl]pyrrolidine, hydrochloride] | 44 | 1870 | – | – | –
5 | CSc1ccsc1C#CCN1CCCCC1 [1-[3-[3-(Methylthio)-2-thienyl]-2-propynyl]piperidine] | – | – | 122 nM | 1970 nM | –
6 | CSc1sccc1C#CCN1CCCC1 [1-[3-[2-(Methylthio)-3-thienyl]-2-propynyl]pyrrolidine] | – | – | 31 nM | 920 nM | –
7 | CSc1cscc1C#CCN1CCCC1 [1-[3-[4-(Methylthio)-3-thienyl]-2-propynyl]pyrrolidine] | – | – | 366 nM | 3340 nM | –
8 | CSc1ccsc1C#CCN1CCCC1 [1-[3-[3-(Methylthio)-2-thienyl]-2-propynyl]pyrrolidine] | – | – | 16 nM | 1380 nM | –
9 | CC(=O)N(C)C(C)C#CCN1CCCC1 (stereo not shown) [BM-5, N-methyl-N-(1-methyl-4-pyrrolidino-2-butynyl)acetamide] | – | – | – | – | activity at muscarinic sites (muscarinic sites; Eur. J. Med. Chem., 1982, 17, 317): antagonist at some muscarinic sites while being an agonist at most others; postsynaptic cholinergic activity (muscarinic sites; postsynaptic): postsynaptic partial cholinergic agonist; presynaptic cholinergic activity (muscarinic sites; presynaptic): presynaptic cholinergic antagonist
10 | CSc1sccc1C#CCN1CCCC1 [1-[3-[2-(Methylthio)-3-thienyl]-2-propynyl]pyrrolidine, hydrochloride] | – | 810 | – | – | –
11 | CSc1sccc1C#CC[N+](C)(C)C [N,N,N-Trimethyl-3-[2-(methylthio)-3-thienyl]-2-propyn-1-aminium, iodide] | – | – | 52.3 nM | 3440 nM | –
12 | CSc1cscc1C#CCN1CCCC1 [1-[3-[4-(Methylthio)-3-thienyl]-2-propynyl]pyrrolidine, hydrochloride] | 110 | 2270 | – | – | –
13 | CSc1cscc1C#CCN1CCCCC1 [1-[3-[4-(Methylthio)-3-thienyl]-2-propynyl]piperidine] | – | – | 998 nM and 530 nM | 5350 nM and 5880 nM | –
14 | CSc1sccc1C#CCN1CCCCC1 [1-[3-[2-(Methylthio)-3-thienyl]-2-propynyl]piperidine, hydrochloride] | 32.5 | 2200 | – | – | –
15 | COC(=O)C1=CCCN(C)C1 [arecoline] | – | – | – | – | improvement in SDAT patients (SDAT patients): more-consistent improvement

More lines, main results first:

Row | IC50 ([1]; pH 7.4, hydrochloride) [nM] | IC50 [2, 3] [nM] | IC50 ([1]; pH 7.4) | IC50 [2, 4] | Compound | other results
16 | – | – | 5.92 nM | 5980 nM | CSc1ccsc1C#CC[N+](C)(C)C [N,N,N-Trimethyl-3-[3-(methylthio)-2-thienyl]-2-propyn-1-aminium, iodide] | –
17 | – | – | 1120 nM | 35000 nM | CSc1ccsc1C#CCN(C)C [N,N-Dimethyl-3-[3-(methylthio)-2-thienyl]-2-propyn-1-amine] | –
18 | – | – | 942 nM | 21400 nM | CSc1sccc1C#CCN(C)C [N,N-Dimethyl-3-[2-(methylthio)-3-thienyl]-2-propyn-1-amine] | –
19 | – | – | 4830 nM | 239000 nM | CSc1cscc1C#CCN(C)C [N,N-Dimethyl-3-[4-(methylthio)-3-thienyl]-2-propyn-1-amine] | –
20 | 1240 | 40400 | – | – | CSc1ccsc1C#CCN(C)C [N,N-Dimethyl-3-[3-(methylthio)-2-thienyl]-2-propyn-1-amine, hydrochloride] | –
21 | 969 | 23300 | – | – | CSc1sccc1C#CCN(C)C [N,N-Dimethyl-3-[2-(methylthio)-3-thienyl]-2-propyn-1-amine, hydrochloride] | –
22 | 1230 | 67500 | – | – | CSc1cscc1C#CCN(C)C [N,N-Dimethyl-3-[4-(methylthio)-3-thienyl]-2-propyn-1-amine, hydrochloride] | –
